In series [1] the test system is euploid and Ts65Dn mice. Put plainly: Locomotor activity and anxiety in the open field. In kind it is in vivo. The method, then:
FIG. 7 depicts results from a locomotor activity and anxiety study of α5IA in Ts65Dn and euploid mice in the open field. Effects of α5IA (5 mg/kg) were evaluated on locomotion and anxiety in the open field.
Locomotor activity was evaluated in a total of 33 mice 30 min after i.p. injections (placebo: 8 euploid and 7 Ts65Dn mice; α5IA (5 mg/kg): 10 euploid and 8 Ts65Dn mice). Locomotion was measured in a square open field (50 cm×50 cm; luminosity: 30 lux) with black walls 30 cm high. Briefly, each animal was placed in the center of the arena and allowed to freely explore it for 10 min. Horizontal activity was monitored using the Any-Maze software. Time spent in the 10-cm wide peripheral zone and in the complementary 30 cm×30 cm central zone was recorded to evaluate anxiety.

For series [2] the following is noted: mainly in urine and in feces; cited from earlier work.
Series [3] deals with euploid and Ts65Dn mice. The series can be described thus: Pro-convulsant effects after pentylenetetrazol (45 mg/kg). The class given is in vivo. The settings on record: mouse, in vivo, 50 min. The method, then:
For testing the pro-convulsant effects of α5IA, a sub-convulsant dose of pentylenetetrazole (45 mg/kg i.p.) that induces myoclonic convulsions in about 50% of mice was injected i.p. 20 min after injection of α5IA (50 mg/kg) or placebo.
The proconvulsant action of the α5IA was measured after injection of a subconvulsive dose of pentylenetetrazole. Mice were injected with either vehicle or the α5IA (50 mg/kg i.p) and 20 min later they received an intraperitoneal injection of 45 mg/kg of pentylenetetrazole. […] Six to 7 mice were used for each condition. The latency to the first myoclonic jerk episode and the convulsion grade were recorded during a 1200-s period of observation. Four grades were empirically determined: Grade 0: no effect; grade 1: tail up and curved; grade 2: reversed tail and convulsive shivers; grade 3: myoclonic convulsions.
We then tested the proconvulsant effect of α5IA by injecting it (50 mg/kg) 20 min before a sub-convulsant dose of pentylenetetrazol (45 mg/kg) that induces myoclonic convulsions in about 50% of mice.

Another series concerns mouse hippocampal slice. The settings on record: cited from earlier work.
In a further series the test system is receptor. The settings on record: rats, 3 mg/kg, cited from earlier work.
Another series concerns mice. Put plainly: Anatomopathology after chronic treatment. The settings on record: 5 mg/kg, 5 injections/week for 5 weeks. In kind it is in vivo. The method, then: FIG. 8 depicts results from a histological lesion study of α5IA after chronic treatment. Following chronic treatment with α5IA (5 mg/kg; 5 injections/week for 5 weeks), different organs were ablated and processed for routine histopathological examination. […] The same negative findings were observed following Periodic acid-Schiff staining of the tissues (not illustrated). […] The size and distribution of urine crystals (not illustrated) appeared to be very similar in the different groups. The scale bar represents 100 μm.
Mice treated for 2 weeks with α5IA and tested in the elevated plus maze were further treated for another 3 weeks. On the last day of treatment, urine samples were collected 2 hours after α5IA or placebo i.p. administration. Urine was stored at −20° C. before analysis. The day after, mice were injected i.p. with an overdose of sodium pentobarbital. Deeply anaesthetized mice received a PBS flush by means of an intracardiac perfusion. For anatomo-pathological examination, 3 additional euploid non-injected mice were also sacrificed. Liver, kidney, brain and spleen were dissected and fixed in a 10% formalin solution. Tissues were then paraffin-embedded and cut using a microtome (5 μm thick sections) before being processed for routine histopathological evaluation (hematein-eosin and Periodic acid-Schiff stainings).

Series [4] has as its target GABAA receptors α1, α2, α3 and α5 subtypes (Homo sapiens, UniProt P31644). The settings on record: α5 subtype; cited from earlier work.
Series [5] has as its system GABAA receptors α1, α2, α3 and α5 subtypes. The note with it: α1, α2 and α3 subtypes; cited from earlier work.
The test system of another series is fos protein. Put plainly: Cerebral fos immunoreactivity after object recognition acquisition. The class given is in vivo, mice. The note with it: 5 mg/kg i.p. The method, then:
The mechanism of action of α5IA was investigated by quantifying neuronal activity by measuring production of fos protein in mice subjected to an object recognition task (exploration of a new environment).
The protocol that was used involved treating mice (placebo or drug). 30 minutes later, the mice were subjected to exploring a new environment, a situation in which the animal acquires and stores information spontaneously. This behavioral stimulation activates c-fos gene, and the expression product of this gene (the Fos protein) is then detected by immunohistochemistry and quantified using dedicated image analysis software. […]
Image analysis was performed as follows: regions of interest (ROIs) were photographed using an Olympus BX61 microscope (x10 objective) and fos immunostaining was quantified using a dedicated image processing software which automatically calculated the proportion of fos-stained tissue (p=stained area/total area), providing an unbiased stereological measurement of fos immunoreactivity. Four ROIs were analyzed: posterior cingulate cortex, perirhinal cortex, dentate gyms and CA1 field of the hippocampus. Each ROI was sampled on several serial sections and results were then averaged to give a reliable quantitative evaluation of local fos immunostaining.

For series [6], the system named is young and elderly subjects. The settings on record: cited from earlier work.
The next series deals with rats. The settings on record: 240 mg/kg for 5 weeks; cited from earlier work.

The source of these data is US9078874B2, “Composition and method for treating cognitive impairments in down syndrom subjects” (Centre National De La Recherche Scientifique—CNRS, priority 2009, dated 2015).

Like-named read-outs stand apart in the source and are kept apart here.

Chain of GABAA receptors α1, α2, α3 and α5 subtypes (Homo sapiens, UniProt P31644) (P31644 32-462): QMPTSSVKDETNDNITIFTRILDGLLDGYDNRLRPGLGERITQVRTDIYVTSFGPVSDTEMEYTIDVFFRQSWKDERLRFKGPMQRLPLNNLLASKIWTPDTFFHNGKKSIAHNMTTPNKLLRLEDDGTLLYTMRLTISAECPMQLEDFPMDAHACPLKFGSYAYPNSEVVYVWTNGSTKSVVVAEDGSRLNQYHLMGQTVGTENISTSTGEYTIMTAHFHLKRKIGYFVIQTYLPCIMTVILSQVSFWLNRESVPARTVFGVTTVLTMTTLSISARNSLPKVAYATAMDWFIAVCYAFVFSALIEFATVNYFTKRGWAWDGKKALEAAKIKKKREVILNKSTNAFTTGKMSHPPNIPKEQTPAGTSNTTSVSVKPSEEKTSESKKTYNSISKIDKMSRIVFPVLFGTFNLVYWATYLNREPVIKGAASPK
Chain of GABAA receptors α1, α2, α3 and α5 subtypes (Homo sapiens, UniProt P31644) (P28472 26-473 partner): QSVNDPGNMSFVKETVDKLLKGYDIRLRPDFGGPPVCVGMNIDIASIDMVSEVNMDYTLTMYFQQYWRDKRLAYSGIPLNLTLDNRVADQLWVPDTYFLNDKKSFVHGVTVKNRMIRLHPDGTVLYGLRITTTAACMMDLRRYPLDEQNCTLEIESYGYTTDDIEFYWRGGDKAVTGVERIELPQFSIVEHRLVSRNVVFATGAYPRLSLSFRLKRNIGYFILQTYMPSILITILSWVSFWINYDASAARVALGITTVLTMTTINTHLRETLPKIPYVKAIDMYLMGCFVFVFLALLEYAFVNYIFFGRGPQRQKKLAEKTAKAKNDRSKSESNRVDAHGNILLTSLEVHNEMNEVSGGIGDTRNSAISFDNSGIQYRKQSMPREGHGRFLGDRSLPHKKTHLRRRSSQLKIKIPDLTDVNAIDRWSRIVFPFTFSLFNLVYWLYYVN
Chain of GABAA receptors α1, α2, α3 and α5 subtypes (Homo sapiens, UniProt P31644) (P18507 40-475 partner): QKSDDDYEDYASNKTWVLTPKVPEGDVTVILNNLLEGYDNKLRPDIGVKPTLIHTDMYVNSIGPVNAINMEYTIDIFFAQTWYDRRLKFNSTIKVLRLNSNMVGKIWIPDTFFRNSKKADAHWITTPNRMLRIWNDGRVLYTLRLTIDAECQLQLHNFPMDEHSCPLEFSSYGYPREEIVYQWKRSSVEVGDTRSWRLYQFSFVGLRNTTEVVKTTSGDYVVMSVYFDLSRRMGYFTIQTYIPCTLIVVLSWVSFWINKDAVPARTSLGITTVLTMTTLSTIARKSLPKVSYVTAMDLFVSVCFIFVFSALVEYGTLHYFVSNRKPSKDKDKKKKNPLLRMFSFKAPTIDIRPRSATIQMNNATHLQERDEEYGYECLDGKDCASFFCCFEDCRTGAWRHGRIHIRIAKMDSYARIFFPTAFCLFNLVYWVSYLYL

As for `Cc1cc(-c2nnc3c4ccccc4c(OCc4cn(C)nn4)nn23)no1` [α5IA, 3-(5-methylisoxazol-3-yl)-6-[(1-methyl-1,2,3-triazol-4-yl)methyloxy]-1,2,4-triazolo[3,4-a]phthalazine], the “locomotor activity and anxiety (periphery-to-center exploration ratio) in the open field” value with euploid and Ts65Dn mice [1] (5 mg/kg, Ts65Dn and euploid mice) is “did not alter locomotor activity and anxiety”. In addition, the “horizontal activity (traveled distances)” value with euploid and Ts65Dn mice [1] (single injection 5 mg/kg, euploid and Ts65Dn mice) is “did not modify the gross locomotor activity”. Further, the metabolism entry in series [2] is listed as “exclusively metabolized into the hydroxymethyl isoxazol metabolite M1”. Moreover, the Convulsant mice rate in the series on euploid and Ts65Dn mice [3] (Ts65Dn) is listed as 4/7; with euploid and Ts65Dn mice [3] (euploid), 3/6. Also, the long-term potentiation entry in the series on mouse hippocampal slice is reported as “enhance long-term potentiation”. Also, the receptor occupancy in the series on receptor (after 2 h) is given as 80%; in the series with receptor (after 8 h), 60%. The “abnormal crystals in brain, hepatic and renal tissues under polarized light” value in the series on mice is on record as “lack of abnormal crystals”. In addition, in the series with mice (liver, kidney, brain), the histological lesions result was “did not induce any histological lesions”. Moreover, the “efficacy at the α5 subtype” value in series [4] is recorded as “exhibits inverse agonism”. Besides, the “efficacy at the α1, α2 and α3 subtypes” value in series [5] is “low or antagonist efficacy”. The “fos immunoreactivity relative to placebo-treated littermates” value in the series on fos protein (all brain regions sampled, except the dentate gyrus) is recorded as “significant increase of fos”. For the same molecule, the “neuronal activity (fos) in the dentate gyrus” value in the series on fos protein (dentate gyrus) is “not significantly affected”. Also, the tolerability entry in [6] is “well tolerated”. In addition, the renal toxicity entry in the series on rats is “renal pyelitis and papillitis associated with crystals formation”.
